We go through ten compounds from patent US10894777B2, “TG2 inhibitor piperazine compounds and uses thereof” (UNIVERSITY OF OTTAWA, priority 2016, dated 2021).

Non-standard residues stand in square brackets, D forms with d. Residues, ends and D or L forms follow the SMILES beside them. *: point of attachment. DON = [N-]=[N+]=CC(=O)CC[C@H](N)C(=O)O; Cbz = O=C(OCc1ccccc1)*

Data set [1] has as its target T1, TG2 (Homo sapiens, UniProt P21980).
T1 sequence (P21980 1-687): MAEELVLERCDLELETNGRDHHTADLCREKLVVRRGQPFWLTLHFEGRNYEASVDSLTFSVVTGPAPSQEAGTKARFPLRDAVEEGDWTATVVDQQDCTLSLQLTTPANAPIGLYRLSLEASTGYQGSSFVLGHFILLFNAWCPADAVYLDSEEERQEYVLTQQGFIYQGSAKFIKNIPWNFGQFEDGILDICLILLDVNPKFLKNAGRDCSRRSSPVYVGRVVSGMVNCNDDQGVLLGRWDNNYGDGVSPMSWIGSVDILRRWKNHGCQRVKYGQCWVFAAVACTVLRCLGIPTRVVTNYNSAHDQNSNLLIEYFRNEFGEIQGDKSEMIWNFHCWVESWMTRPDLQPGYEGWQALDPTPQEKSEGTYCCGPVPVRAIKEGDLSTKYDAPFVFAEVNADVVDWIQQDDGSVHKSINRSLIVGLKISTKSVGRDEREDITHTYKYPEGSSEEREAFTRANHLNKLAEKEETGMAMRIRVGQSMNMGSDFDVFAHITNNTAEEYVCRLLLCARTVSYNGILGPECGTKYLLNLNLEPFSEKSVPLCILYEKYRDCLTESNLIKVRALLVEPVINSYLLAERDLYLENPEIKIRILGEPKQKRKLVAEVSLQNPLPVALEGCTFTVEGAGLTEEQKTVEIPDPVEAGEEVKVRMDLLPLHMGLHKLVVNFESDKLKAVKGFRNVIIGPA
The data set is described as follows: In vitro GTP binding assay after inhibition of hTG2 (BODIPY GTP-γ-S). The conditions noted are these: inhibitor 2×KI, 30 min; 3 μM GTP-γ-S FL BODIPY. How it is done:
In vitro GTP binding assay. GTP binding was measured using a method similar to that reported previously (McEwen, D. P. et al., Anal. Biochem. (2001), 291 (1): 109-117). […] The buffer was then exchanged to 100 mM MOPS (pH=7.0), 1 mM EGTA and 5 mM MgCl2 to remove calcium using a 10-kDa molecular weight cut off membrane. The fluorescent GTP analog was then added to give a final concentration of 3.0 μM and fluorescence was then measured on a microplate reader after 10 minutes of incubation (Ex/Em: 490/520 nm).

Data set [2] deals with T1, TG2. The data set is described as follows: Colorimetric transamidase activity assay (AL5 substrate), hTG2. The format is biochemical. The note with it: Table 7; for kinact: read-out: kinact (converted); for kinact/KI: read-out: kinact/KI (10^3M^−1 min^−1).
Protocol: In Vitro Assays. Colorimetric transamidase activity assay. The activities of hTG1, hTG2 and hTG6 were measured via a colorimetric assay using the chromogenic substrate Cbz-Glu(γ-p-nitrophenyl ester)Gly (AL5). The assay was conducted at 25° C. in 100 mM MOPS buffer (pH 6.5) containing 3.0 mM CaCl2 and 50 μM EDTA. […] A stock solution of AL5 was prepared in DMSO such that the final concentration of this co-solvent was constant at 2.5% v/v. Stock solutions of the inhibitors were made in the buffer system previously described. The reaction was initiated with the addition of 40-60 mU/mL of the respective enzyme (0.10 μM hTG1, 0.25 μM hTG2 or 0.32 μM hTG6). Product formation was monitored at 405 nm in a polystyrene 96-well microplate using a BioTek Synergy 4 plate reader. […] Observed first-order rate constants of inactivation (kobs) were determined from non-linear regression fit to a mono-exponential model (Equation 1) of the observed absorbance of the enzymatic hydrolysis product, p-nitrophenolate (pNP). […] Experiments were done in triplicate and variation between repeats was less than 30%.
Data set [3] concerns the target T1, TG2. Briefly: Kinetic inactivation of purified recombinant human TG2, continuous spectrophotometric activity assay (Examples 3, 10). The data set is classed as biochemical. Also noted: made in house. The note with it: Table 4; for kinact/KI: read-out: kinact/Ki (μM^−1 min^−1), for ^a no saturation observed, efficiency obtained from initial slope. How it is done: Kinetic studies were carried out in vitro, using purified recombinant human TG2 (Roy, I. et al., Protein Expr. Purif. 87: 41-46, 2013) and a direct, continuous spectrophotometric activity assay (Leblanc, A. et al., Biochemistry 40: 8335-8342, 2001).
Kinetics. Kinetic runs were performed at 25° C. in 100 mM MOPS buffer (pH 7.0) containing 3 mM CaCl2 and 50 μM EDTA. […] Stock solutions of the substrate and inhibitors were prepared in DMF such that the final concentration of this co-solvent was constant at 10% v/v. Reactions were initiated with the addition of enzyme with an activity of approximately 0.05 U/mL. Kinetic evaluation was carried out by the method of Stone and Hofsteenge (Stone, S. R. and Hofsteenge, J., Biochem. J. 230: 497-502, 1985). […] Observed first-order rate constants of inactivation were determined from non-linear regression, to a mono-exponential model. These rate constants were in turn fit to equation 1 by non-linear regression, providing the kinetic parameters
Kinetic parameters were determined as described above.

Data set [4] concerns TG2 fusion protein mCer-TG2-YFP. Briefly: Fluorescence lifetime imaging (FLIM) of mCer-TG2-YFP conformation, SCC-13 cells. The format is cell-based, human. The note with it: 10 μM A23187, 24 h; control 2.94 ns. The protocol:
We monitored the impact of each inhibitor on intracellular TG2 structure using FLIM (Fluorescence Lifetime Imaging Microscopy). FLIM is a quantitative method of assessing fluorescence lifetime that measures energy transfer between donor and accept probes Fluorescence lifetime is measured in nanoseconds and a short lifetime correlates with close contact between probes (FIG. 29B). An advantage of this method is that fluorescent lifetimes are independent of probe concentration. In the present experiments, we expressed in cells a TG2 fusion protein in which the donor probe (mCER) is fused to the N-terminus and the acceptor probe (YFP) at the C-terminus (FIG. 29B). mCER and YFP comprise an ideal donor/acceptor pair; the donor probe is excited by laser illumination and energy transfer to the acceptor is monitored. The fluorescent lifetime is shorter when TG2 is in the closed conformation which brings mCER and YFP close together. SCC-13 cells were electroporated with empty vector, mCER-TG2 or mCER-TG2-YFP.
Fluorescence lifetime imaging. Fluorescence lifetime images were acquired using FLIM system (Alba 5 from ISS). […] Emission was observed through bandpass filter 480/35 nm (Chroma Technology) and detected by a photomultiplier H7422-40 (Hamamatsu). FLIM data were acquired using time-domain modality (SPC-830 TCSPC module from Becker and Hickl GmbH). […] To account for intensity heterogeneity within single intensity images, two to five consecutive scans were acquired and summed to build FLIM intensity image for lifetime analysis. […] FLIM data were analyzed using VistaVision Suite software (Vista v.213 from ISS). Lifetime images were generated by fitting data using single exponential intensity decay model. Intensity threshold for lifetime analysis was set of at least 3-fold above the intensity of dim cells and fitting procedure was performed for binned pixels at level of 3 (7×7 pixels). Lifetime distribution within image is represented with histogram showing pixel frequency of specific lifetime. The average lifetime values with standard deviations were calculated based on all processed pixels in lifetime image. FRET values were calculated according to the formula ET=1−(τDA/τD), where τD is the lifetime of donor (mCer-TG2) and τDA is the lifetime of donor-acceptor pair (mCer-TG2—YFP).

In data set [5] the test system is SCC-13 cells. Briefly: Spheroid formation / survival assay, SCC-13 cells (ECS cells). The data set is classed as cell-based, human. The note with it: for spheroid formation with kinase inhibitor: PF-573228 10 μM, 6 d. How it is done:
Spheroid formation assay. Cells, maintained as monolayer cultures in growth medium consisting of DMEM (Invitrogen, Frederick, Md.) supplemented with 4.5 mg/ml D-glucose, […] L-glutamine, […] sodium pyruvate, and 5% fetal calf serum, were harvested, collected by centrifugation, and resuspended in spheroid medium comprising DMEM/F12 (1:1) (DMT-10-090-CV, Mediatech Inc., Manassas, Va.) supplemented with 2% B27 serum-free supplement (17504-044, Invitrogen, Frederick, Md.), 20 ng/ml EGF (E4269, Sigma, St. Louis, Mo.), 0.4% bovine serum albumin (B4287, Sigma) and 4 μg/ml insulin (19278 Sigma, St. Louis, Mo.). The cells (40,000) were plated in 9.6 cm^2 wells in Costar six well ultra-low attachment cluster dishes (4371, Corning, Tewksbury, Mass.). Spheroid size and number was monitored with time in culture as previously described (Adhikary, G. et al., PLoS One 8:e84324, 2013).
Spheroid formation assay. Spheroid formation assays were exactly as outlined previously (Adhikary, G. et al., PLoS ONE 8:e84324, 2013), except that the spheroids were grown in six well ultra-low attachment Costar cluster dishes (4371, Corning, Tewksbury, Mass.).
Spheroid formation assay. Spheroid formation assays were as reported previously (Adhikary, G. et al., PLoS One 8:e84324, 2013), except that the spheroids were grown in 6-well ultralow attachment Costar cluster dishes (Corning).

The subject of data set [6] is glioblastoma multiforme (GBM) cell lines. The conditions noted are these: cited from earlier work.
Data set [7] concerns EGFR. The conditions noted are these: cited from earlier work; for EGFR levels: U87, but not T98G cells, 24 hrs.
Data set [8] concerns the target FAK kinase (Homo sapiens, UniProt Q05397).
Protocol: SCC-13 cells (40,000 per well) were grown in spheroid medium in attached (monolayer) or non-attached (spheroid, ECS cell). Cells were collected after 10 d and lysates were prepared for immunoblot. In (B), SCC-13 cells spheroid were grown for 8 d and extracts were immunoprecipitated as indicated prior to immunoblot. […] Cells were grown in spheroid medium in monolayer culture for 10 d prior to collection of lysates for immunoblot. […] In (J), (K), and (L), cells were double-electroporated with indicated siRNA and 24 h later plated for spheroid formation in the presence of the indicated inhibitor. […] The plotted values are mean±SEM and asterisks indicate significant change compared to control, n=3, p<0.005.
Immunoblot. Equivalent amounts of protein were electrophoresed on denaturing and reducing 10% polyacrylamide gels and transferred to nitrocellulose membrane. […] Secondary antibody binding was visualized using ECL Prime (Amersham) chemiluminescence detection technology.

Sequence of FAK kinase (Q05397 whole entry): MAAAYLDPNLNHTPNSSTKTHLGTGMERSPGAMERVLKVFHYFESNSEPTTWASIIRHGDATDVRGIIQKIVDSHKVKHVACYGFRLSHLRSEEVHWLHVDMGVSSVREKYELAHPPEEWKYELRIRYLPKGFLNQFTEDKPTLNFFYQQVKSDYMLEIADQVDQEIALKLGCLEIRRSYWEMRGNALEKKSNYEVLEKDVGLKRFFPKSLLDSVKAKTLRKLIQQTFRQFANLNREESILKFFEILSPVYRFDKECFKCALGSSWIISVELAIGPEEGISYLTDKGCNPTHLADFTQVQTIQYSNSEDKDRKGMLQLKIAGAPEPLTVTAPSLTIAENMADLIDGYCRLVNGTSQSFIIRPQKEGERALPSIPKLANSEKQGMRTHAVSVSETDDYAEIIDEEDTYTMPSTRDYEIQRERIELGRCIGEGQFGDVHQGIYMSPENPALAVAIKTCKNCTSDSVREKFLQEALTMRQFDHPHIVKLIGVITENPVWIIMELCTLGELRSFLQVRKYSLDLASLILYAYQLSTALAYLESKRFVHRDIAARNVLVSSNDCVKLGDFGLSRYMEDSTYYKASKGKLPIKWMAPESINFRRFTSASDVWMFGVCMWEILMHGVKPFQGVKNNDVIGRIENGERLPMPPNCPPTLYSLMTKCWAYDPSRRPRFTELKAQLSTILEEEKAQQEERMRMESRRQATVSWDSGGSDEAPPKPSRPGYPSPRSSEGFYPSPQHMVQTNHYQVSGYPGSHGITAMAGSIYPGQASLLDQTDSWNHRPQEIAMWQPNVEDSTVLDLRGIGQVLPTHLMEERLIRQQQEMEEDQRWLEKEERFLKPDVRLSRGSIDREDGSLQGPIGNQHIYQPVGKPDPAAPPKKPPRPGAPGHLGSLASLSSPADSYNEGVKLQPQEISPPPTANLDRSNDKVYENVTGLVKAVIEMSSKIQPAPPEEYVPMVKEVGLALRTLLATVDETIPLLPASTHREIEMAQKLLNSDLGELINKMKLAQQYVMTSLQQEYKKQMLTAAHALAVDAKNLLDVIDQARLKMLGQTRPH

Turning to `C=CC(=O)NCCCC[C@H](NC(=O)OCc1ccccc1)C(=O)N1CCN(C(=O)c2cccc3ccccc23)CC1` [AA9, (S)-benzyl (1-(4-(1-naphthoyl)piperazin-1-yl)-6-acrylamido-1-oxohexan-2-yl)carbamate], the “GTP binding of hTG2 after incubation with inhibitor” value in [1] was “abolish GTP binding nearly completely”.
Compound `C=CC(=O)NCCCC[C@H](NC(=O)OCc1ccccc1)C(=O)N1CCN(S(=O)(=O)c2ccc3ccccc3c2)CC1` [Compound 129, (S)-benzyl (6-acrylamido-1-(4-(naphthalen-2-ylsulfonyl)piperazin-1-yl)-1-oxohexan-2-yl)-carbamate] showed a melting point of 65 to 66 °C. For the same compound, in data set [2], the kinact was 0.00633 s⁻¹ and the kinact/KI is 955 M⁻¹ s⁻¹. In [3], the maximal inactivation rate constant (kinact) is 0.00643 s⁻¹ and the kinact/KI is 2500 M⁻¹ s⁻¹.
For `C=CC(=O)NCCCC[C@H](NC(=O)OCc1ccccc1)C(=O)N1CCN(S(=O)(=O)Cc2ccccc2)CC1` [Compound 131, (S)-benzyl (6-acrylamido-1-(4-(benzylsulfonyl)piperazin-1-yl)-1-oxohexan-2-yl)carbamate], in that order: 50 to 52 °C, 0.00783 s⁻¹, 582 M⁻¹ s⁻¹, 0.00907 s⁻¹ and 1900 M⁻¹ s⁻¹.
For `C=CC(=O)NCCCC[C@H](NC(=O)OCc1ccccc1)C(=O)N1CCN(S(=O)(=O)C(C)C)CC1` [Compound 133, (S)-benzyl(6-acrylamido-1-(4-(isopropylsulfonyl)piperazin-1-yl)-1-oxohexan-2-yl)carbamate], in that order: 48 to 49 °C, 0.00833 s⁻¹, 912 M⁻¹ s⁻¹, 0.0115 s⁻¹ and 2800 M⁻¹ s⁻¹.
As for `CNc1ccc2oc(C[C@H]3O[C@@]4(CC[C@H]3C)O[C@H]([C@H](C)C(=O)c3ccc[nH]3)[C@H](C)C[C@H]4C)nc2c1C(=O)O` [Compound A23187, reference compound], the “fluorescence lifetime of mCer-TG2-YFP” value in data set [4] is listed as around 3.1 ns.
Turning to `NCCCCCNC(=S)Nc1ccc2c(c1)C(=O)OC21c2ccc(O)cc2Oc2cc(O)ccc21` [FC, fluorescein cadaverine, reference compound], the “spheroid number, pre-formed spheroids” value in [5] (spheroids grown for 8 days, then treated) is on record as “reduced spheroid number”.
As to `CN(C)c1cccc2c(S(=O)(=O)NCCCCCN)cccc12` [MDC, monodansylcadaverine], in data set [6], the “proliferation of GBM cell lines” value is “reduce proliferation in two out of three glioblastoma multiforme (GBM) cell lines tested”. Further, the EGFR levels result in [7] is listed as “reduced the levels of EGFR”. Moreover, the “EGFR phosphorylation in response to EGF” value in [7] (U87 cells, 30 min pretreatment) is “greatly reduced the extent of EGFR phosphorylation”.
In the case of `CS(=O)(=O)c1cccc(CNc2nc(Nc3ccc4c(c3)CCC(=O)N4)ncc2C(F)(F)F)c1` [PF-573228, reference compound], the “spheroid formation with kinase inhibitor” value in [5] is reported as “markedly reduced spheroid formation”. The FAK kinase activity result in [8] is “reduced FAK kinase activity”.
As to `CC(C)(C)n1nc(-c2ccc(Cl)cc2)c2c(N)ncnc21` [PP2, reference compound], the “spheroid formation with kinase inhibitor” value in data set [5] is on record as “suppressed spheroid formation”.
On to `COC(=O)[C@H](CC(C)C)NC(=O)[C@@H]1CCCN1C(=O)[C@@H](NC(=O)[C@H](CCC(=O)C=[N+]=[N-])NC(=O)OCc1ccccc1)C(C)C` [Z-DON] (Cbz-[DON]VPL-OMe), for which, in [6], the “proliferation of GBM cell lines” value is given as “reduce proliferation in two out of three glioblastoma multiforme (GBM) cell lines tested”. Also, the EGFR levels result in [7] is “reduced the levels of EGFR”.
